Here are results for two compounds from publication PMC10831936 (iScience, 2024).

Structures are written as SMILES. A value given as a limit tells only on which side of the number the result lay.

In one assay the test system is cAMP. The assay can be described thus: GloSensor cAMP assay in PC12 cells. It is filed as cell-based, Rattus norvegicus. Background: Cyclic AMP is a second messenger, typically raised through Gs and lowered through Gi signalling.
Another assay concerns calcium. Description: Fluo-4 AM calcium assay in PC12 cells. It is filed as cell-based, Rattus norvegicus. The note with it: stimulation mix.
In another assay the test system is EGR1p (ERBB4). The assay can be described thus: EGR1p pathway sensor luciferase assay, ERBB4 transfected. It is filed as cell-based, Rattus norvegicus. The note with it: Rattus norvegicus, PC-12; PC12 cells; constant EGF-like domain 10 ng/mL; luciferase readout; read-out: ERBB4 downstream MAPK signaling IC50, EGR1p sensor luciferase. Here is the method:
(§1) 50,000 PC12 cells were seeded per 96-well onto poly-L-lysin (PLL)-coated plates and transfected the following day (day in vitro 1, DIV1) with assay plasmids using Lipofectamine 3000 (Thermo Fisher Scientific). For split TEV assays, plasmids (pcDNA3 or pTag4C backbone) encoding receptor-NTEV-tcs-GV, GRB2-SH2-CTEV (for ERBB receptors) or ARBB2-1-383-CTEV (for HTR2A) (all 10 ng/well), and the p10xUAS-luc2 reporter plasmid (10 ng/well) were used. For pathway assays, the receptor plasmids (15 ng/well) and pathway reporter plasmids (15 ng/well) pEGR1p-luc2 for monitoring MAPK signaling, pCRE-CMVmin-luc2 for monitoring cAMP/Ca^2+ signaling, or p6xNFAT-CMVmin-luc2 for Ca^2+ signaling were used. Transient transfections were conducted according to the manufacturer’s instructions. On DIV2, cells were starved in medium containing 1% FCS for 16 h. […] In the case of antagonist assays, compounds were added at increasing doses together with the stimulus. Cells were lysed in 1x passive lysis buffer (Promega) and subjected to a firefly luciferase assay using a self-made substrate for firefly luciferase.[100] Luciferase activity was analyzed in a Mithras LB 940 Multimode Microplate Reader (Berthold Technologies). All assays were run in 96-well plates using six replicates per condition.

For another assay, the system named is ERBB2/3 EGR1p. The assay can be described thus: ERBBprofiler barcoded EGR1p pathway sensor, ERBB2/3 co-transfected. Conditions: Rattus norvegicus, PC-12, 6 h, read-out: ERBB2/3 EGR1p IC50.
In the next assay the test system is HTR2A NFAT. Description: ERBBprofiler barcoded NFAT pathway sensor, HTR2A co-transfected. The note with it: Rattus norvegicus, PC-12, 6 h, read-out: HTR2A NFAT IC50.
The subject of assay [1] is phospho-ERK1/2. The assay can be described thus: Western blot of p-ERK1/2 in T-47D cells (EGFld stimulated). It is filed as cell-based. Conditions: Homo sapiens, T47D, compound 1 h, EGFld 10 ng/mL 5 min, read-out: p-ERK1/2 IC50 (ERBB4), Western blot quantification. As to the method: (§2) Phosphorylation levels of EGFR were assessed[37] in A549 cells, while phosphorylation levels of ERBB4 were assessed in T-47D cells. Before stimulation experiments were performed, both cell types were starved overnight in 1% FCS and compounds were incubated for 1 h. […] For lysis, cells were washed 1x with PBS and lysed in a Triton X- lysis buffer (1% Triton X-100, 50 mM Tris pH7.5, 150 mM NaCl, 1 mM EGTA) containing the Complete protease inhibitor cocktail (Roche) and PhosSTOP phosphatase inhibitor (Roche). Briefly, cells were lysed and kept on ice for 10 min, sonicated 3x for 10 s at 4°C, and denatured for 10 min at 70°C. The Mini-PROTEAN Tetra Electrophoresis System and Trans-Blot Turbo Botting System (both Bio-Rad) were used for running and blotting protein gels. […] Total EGFR and ERBB4 protein levels were determined using an anti-EGFR antibody (RRID: AB_10920395) (clone A-10, dilution 1:1000, sc-373746, Santa Cruz Biotechnology) and an anti-ERBB4 antibody (RRID: AB_731579) (clone E200, dilution 1:1000, ab32375, Abcam). […] Tubulin levels were determined using an anti-Tubulin antibody (RRID: AB_477579) (dilution 1:2000, No. T 5168, Sigma-Aldrich). For quantification, phosphorylation levels of p-EGFR relative to EGFR as well as p-ERBB4 relative to ERBB4 were calculated using the Lukemiller protocol (http://lukemiller.org/index.php/2010/11/analyzing-gels-and-western-blots-with-image-j/). […]
(In general: A western blot detects proteins with antibodies after separation by electrophoresis.)

The next assay deals with EGFR EGR1p. Description: ERBBprofiler barcoded EGR1p pathway sensor, EGFR co-transfected. The note with it: Rattus norvegicus, PC-12, 6 h, read-out: EGFR EGR1p IC50.
A further assay deals with ERBB4 (Homo sapiens, UniProt Q15303). Description: Split TEV firefly luciferase assay, ERBB4. It is filed as cell-based. Conditions: PC12 cells; constant EGF-like domain 10 ng/mL; luciferase readout. Here is the method: as §1
Another assay concerns the target HTR2A (Homo sapiens, UniProt P28223). Description: ERBBprofiler barcoded split TEV assay, HTR2A.
The next assay concerns the target T1, phospho-ERBB4 (Homo sapiens, UniProt Q15303).
T1 construct: T-47D cells, which endogenously express ERBB4; host or cells: T-47D cells
Description: Western blot of p-ERBB4 in T-47D cells. In kind it is cell-based. Conditions: compound 1 h, EGFld 10 ng/mL 5 min, read-out: p-ERBB4 IC50, Western blot quantification. Here is the method:
as §2

For a further assay, the target named is ERBB2/3 (Homo sapiens, UniProt P04626+P21860). Description: ERBBprofiler barcoded split TEV assay, ERBB2/3.
For assay [2], the system named is phospho-ERK1/2. Description: Western blot of p-ERK1/2 in A549 cells (EGF stimulated). The note with it: Homo sapiens, read-out: p-ERK1/2 IC50 (EGFR), Western blot quantification. It is filed as cell-based. As to the method: as §2
In another assay the test system is HTR2A EGR1p. Description: ERBBprofiler barcoded EGR1p pathway sensor, HTR2A co-transfected. The note with it: Rattus norvegicus, PC-12, 6 h, read-out: HTR2A EGR1p IC50.
In another assay the test system is ERBB4 EGR1p. The assay can be described thus: ERBBprofiler barcoded EGR1p pathway sensor, ERBB4 co-transfected. The note with it: Rattus norvegicus, PC-12, 6 h, read-out: ERBB4 EGR1p IC50.

ERBB2/3, sequence (P04626 23-1255): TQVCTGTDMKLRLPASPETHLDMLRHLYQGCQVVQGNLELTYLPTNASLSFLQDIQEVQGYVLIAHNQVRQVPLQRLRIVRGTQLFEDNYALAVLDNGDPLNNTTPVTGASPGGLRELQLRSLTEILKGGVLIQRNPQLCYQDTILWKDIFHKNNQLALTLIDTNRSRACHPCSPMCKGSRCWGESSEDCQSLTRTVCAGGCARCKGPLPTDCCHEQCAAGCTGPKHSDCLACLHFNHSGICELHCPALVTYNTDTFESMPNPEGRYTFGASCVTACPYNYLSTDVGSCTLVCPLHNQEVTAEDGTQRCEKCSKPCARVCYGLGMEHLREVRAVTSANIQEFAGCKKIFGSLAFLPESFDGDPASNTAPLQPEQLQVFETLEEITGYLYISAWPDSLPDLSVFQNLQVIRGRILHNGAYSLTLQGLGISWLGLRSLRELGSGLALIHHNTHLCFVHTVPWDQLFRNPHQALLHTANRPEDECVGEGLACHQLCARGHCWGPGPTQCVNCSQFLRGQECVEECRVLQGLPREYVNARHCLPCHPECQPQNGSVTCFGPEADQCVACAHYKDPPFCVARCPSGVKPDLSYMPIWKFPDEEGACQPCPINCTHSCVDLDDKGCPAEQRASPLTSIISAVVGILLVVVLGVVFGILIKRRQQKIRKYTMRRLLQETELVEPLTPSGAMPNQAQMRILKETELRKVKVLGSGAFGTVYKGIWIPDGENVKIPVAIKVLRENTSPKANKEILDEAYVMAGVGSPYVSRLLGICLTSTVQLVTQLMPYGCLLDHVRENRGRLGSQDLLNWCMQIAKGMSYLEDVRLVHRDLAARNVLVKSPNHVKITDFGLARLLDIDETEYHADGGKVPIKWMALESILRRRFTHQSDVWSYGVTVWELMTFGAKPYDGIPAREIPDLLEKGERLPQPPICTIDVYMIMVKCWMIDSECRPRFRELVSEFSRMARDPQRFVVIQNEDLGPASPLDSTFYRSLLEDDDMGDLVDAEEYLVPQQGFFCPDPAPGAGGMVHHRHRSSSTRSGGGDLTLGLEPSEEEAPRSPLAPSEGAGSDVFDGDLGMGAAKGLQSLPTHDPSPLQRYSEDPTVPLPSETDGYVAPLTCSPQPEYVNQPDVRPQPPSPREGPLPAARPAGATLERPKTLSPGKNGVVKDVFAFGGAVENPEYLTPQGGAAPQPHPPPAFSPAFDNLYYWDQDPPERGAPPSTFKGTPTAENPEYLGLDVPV
ERBB2/3, sequence (P21860 20-1342): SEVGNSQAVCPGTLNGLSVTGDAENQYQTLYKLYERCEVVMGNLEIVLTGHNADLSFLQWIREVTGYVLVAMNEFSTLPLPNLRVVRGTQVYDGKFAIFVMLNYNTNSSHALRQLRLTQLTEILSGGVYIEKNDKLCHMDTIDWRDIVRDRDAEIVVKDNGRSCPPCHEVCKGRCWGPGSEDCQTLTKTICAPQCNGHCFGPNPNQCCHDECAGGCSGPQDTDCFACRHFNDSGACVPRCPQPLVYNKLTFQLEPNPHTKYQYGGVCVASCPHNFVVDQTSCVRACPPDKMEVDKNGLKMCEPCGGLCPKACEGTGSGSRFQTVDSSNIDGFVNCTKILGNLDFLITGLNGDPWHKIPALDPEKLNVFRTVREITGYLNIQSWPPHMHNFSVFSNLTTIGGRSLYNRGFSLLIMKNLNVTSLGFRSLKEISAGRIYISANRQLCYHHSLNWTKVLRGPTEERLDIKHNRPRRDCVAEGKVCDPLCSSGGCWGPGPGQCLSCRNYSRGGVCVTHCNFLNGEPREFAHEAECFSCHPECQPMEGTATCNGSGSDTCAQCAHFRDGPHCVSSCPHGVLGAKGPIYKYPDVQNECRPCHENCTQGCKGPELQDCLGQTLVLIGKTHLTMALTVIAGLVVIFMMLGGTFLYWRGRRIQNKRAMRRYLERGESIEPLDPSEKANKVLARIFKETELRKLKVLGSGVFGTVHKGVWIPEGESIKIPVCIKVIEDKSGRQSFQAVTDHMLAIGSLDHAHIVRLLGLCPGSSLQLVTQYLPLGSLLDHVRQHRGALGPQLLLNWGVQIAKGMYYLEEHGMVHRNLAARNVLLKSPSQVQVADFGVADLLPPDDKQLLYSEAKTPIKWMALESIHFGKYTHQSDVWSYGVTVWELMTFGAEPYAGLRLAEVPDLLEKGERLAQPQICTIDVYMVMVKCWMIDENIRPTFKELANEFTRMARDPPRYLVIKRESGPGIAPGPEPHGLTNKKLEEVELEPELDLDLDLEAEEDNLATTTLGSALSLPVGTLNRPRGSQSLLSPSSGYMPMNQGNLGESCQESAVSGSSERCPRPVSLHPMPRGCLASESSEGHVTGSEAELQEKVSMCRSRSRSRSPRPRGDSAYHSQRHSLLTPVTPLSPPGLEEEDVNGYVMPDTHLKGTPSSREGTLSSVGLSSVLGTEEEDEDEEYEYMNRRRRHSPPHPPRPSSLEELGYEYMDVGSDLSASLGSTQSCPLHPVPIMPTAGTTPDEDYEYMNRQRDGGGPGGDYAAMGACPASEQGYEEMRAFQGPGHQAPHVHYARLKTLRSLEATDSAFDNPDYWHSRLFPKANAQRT
HTR2A, sequence (P28223 whole entry): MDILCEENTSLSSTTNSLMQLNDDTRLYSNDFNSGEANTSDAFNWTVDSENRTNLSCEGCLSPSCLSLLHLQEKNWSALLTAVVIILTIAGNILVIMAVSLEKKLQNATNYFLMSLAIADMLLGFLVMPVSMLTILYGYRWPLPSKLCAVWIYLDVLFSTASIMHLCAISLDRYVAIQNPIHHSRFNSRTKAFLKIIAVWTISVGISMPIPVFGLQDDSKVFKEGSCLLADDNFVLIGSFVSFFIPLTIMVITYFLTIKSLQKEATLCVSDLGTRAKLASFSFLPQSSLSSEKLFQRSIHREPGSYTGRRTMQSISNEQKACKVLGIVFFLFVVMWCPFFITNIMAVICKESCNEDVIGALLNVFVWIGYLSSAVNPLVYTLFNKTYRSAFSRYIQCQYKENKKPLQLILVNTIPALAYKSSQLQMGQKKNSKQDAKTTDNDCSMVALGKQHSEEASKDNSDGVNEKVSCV
T1 sequence (Q15303 26-1308): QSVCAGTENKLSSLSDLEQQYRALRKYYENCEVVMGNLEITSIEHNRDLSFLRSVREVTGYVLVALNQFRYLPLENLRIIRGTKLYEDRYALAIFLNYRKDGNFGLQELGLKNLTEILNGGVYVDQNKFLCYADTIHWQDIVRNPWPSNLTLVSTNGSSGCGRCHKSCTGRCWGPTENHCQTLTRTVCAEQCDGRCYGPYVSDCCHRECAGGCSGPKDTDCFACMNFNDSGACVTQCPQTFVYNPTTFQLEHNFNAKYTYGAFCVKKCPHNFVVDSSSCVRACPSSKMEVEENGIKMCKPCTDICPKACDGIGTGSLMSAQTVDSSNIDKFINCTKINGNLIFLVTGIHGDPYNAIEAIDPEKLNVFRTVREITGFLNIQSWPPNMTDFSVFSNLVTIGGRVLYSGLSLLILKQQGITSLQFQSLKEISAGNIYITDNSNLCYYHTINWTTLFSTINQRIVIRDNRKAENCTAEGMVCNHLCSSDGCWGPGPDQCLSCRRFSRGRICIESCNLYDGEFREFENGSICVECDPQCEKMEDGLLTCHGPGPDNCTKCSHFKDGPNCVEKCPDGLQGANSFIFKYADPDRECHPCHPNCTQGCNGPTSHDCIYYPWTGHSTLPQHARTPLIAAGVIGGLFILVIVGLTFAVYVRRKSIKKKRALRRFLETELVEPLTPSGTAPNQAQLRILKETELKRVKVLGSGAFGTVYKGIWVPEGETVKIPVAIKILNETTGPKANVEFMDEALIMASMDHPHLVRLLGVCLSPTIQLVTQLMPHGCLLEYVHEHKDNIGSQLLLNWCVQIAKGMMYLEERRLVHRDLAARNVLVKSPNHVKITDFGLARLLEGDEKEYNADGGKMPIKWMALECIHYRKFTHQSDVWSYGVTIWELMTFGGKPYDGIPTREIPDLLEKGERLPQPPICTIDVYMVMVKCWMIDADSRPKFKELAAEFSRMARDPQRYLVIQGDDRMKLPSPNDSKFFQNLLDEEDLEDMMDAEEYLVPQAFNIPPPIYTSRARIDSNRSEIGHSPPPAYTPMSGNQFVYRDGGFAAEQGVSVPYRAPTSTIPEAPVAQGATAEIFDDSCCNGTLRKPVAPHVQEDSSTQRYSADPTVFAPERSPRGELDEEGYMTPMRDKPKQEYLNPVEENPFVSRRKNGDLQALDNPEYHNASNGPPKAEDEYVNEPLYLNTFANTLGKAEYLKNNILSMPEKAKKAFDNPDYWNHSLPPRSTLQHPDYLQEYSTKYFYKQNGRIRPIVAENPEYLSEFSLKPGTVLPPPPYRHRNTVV
ERBB4, sequence (Q15303 26-1308): as above
Description for cAMP: The GloSensor cAMP assay was conducted with the same parameters (50,000 PC12 cells per 96-well) as described above for the firefly luciferase assay, with however, three differences. Specifically, (1) 30 ng/well of the pGloSensor-22F plasmid (Promega, E2301) was used for transfection, and (2) on DIV3, cells were equilibrated in assay medium containing a 2% v/v dilution of D-luciferin (Synchem, bc219) for 2 h at 37°C before (3) the treatment of compounds for 15 min and lysis in 1x passive lysis buffer (Promega) and luciferase activity measurement.
Description for calcium: On DIV2, cells were pre-equilibrated in 10 μM Fluo-4 a.m. (Thermo Fisher Scientific, F14201) away from light for 1 h at 37°C. Next, cells were incubated in the indicator-free starvation medium to allow de-esterification for 20 min away from light at 37°C. Background fluorescence was then measured using the BMG POLARstar Optima Microplate Reader prior to adding the treatments and continuously measuring the fluorescence for the next 30 min. Fluorescence was measured using the bottom optics.

In the case of `COc1cc2ncnc(Nc3cccc(Cl)c3)c2cc1OC` [AG1478, AG-1478 (Tyrphostin AG-1478)], the “effect on cAMP levels (GloSensor)” value with cAMP was “did not cause any increase”. Also, the “effect on calcium levels (Fluo-4 AM)” value in the assay on calcium was “did not cause any increase”. For the same compound, the IC50 was 378 nM in the assay on EGR1p (ERBB4); 30 nM in the assay with ERBB2/3 EGR1p; 64 nM with HTR2A NFAT; 147 nM in the assay with phospho-ERK1/2 [1]; 23 nM in the assay on EGFR EGR1p; 258 nM against ERBB4. In addition, the IC50 against HTR2A was found to be 17 nM; at phospho-ERBB4 it was 100 nM; against ERBB2/3 it was 202 nM; in the assay with phospho-ERK1/2 [2], 0.091 µM; in the assay with HTR2A EGR1p, 32 nM; with ERBB4 EGR1p, 47 nM.

`CCOc1cc2ncc(C#N)c(Nc3ccc(OCc4ccccn4)c(Cl)c3)c2cc1NC(=O)/C=C/[C@H]1CCCN1C` [Pyrotinib]: the EC50 (usually the concentration needed to bring the measured effect to its halfway point) with cAMP (Rattus norvegicus, PC-12, 0.25 h, constant stimulation mix, 15 min, cAMP increase) was determined as 1920 nM. Also, in the assay with cAMP (stimulation mix), the “compound concentration resulting in elevated cAMP (GloSensor)” value is at least 3 µM. Also, the “effect on calcium levels (Fluo-4 AM)” value in the assay on calcium is “but not calcium levels”. In addition, the IC50 in the assay on EGR1p (ERBB4) is 284 nM; in the assay with ERBB2/3 EGR1p, 120 nM; in the assay on HTR2A NFAT, 576 nM; with phospho-ERK1/2 [1] it was 4990 nM; in the assay with EGFR EGR1p, 261 nM; at ERBB4, 324 nM. Moreover, the IC50 on HTR2A was 184 nM; at phospho-ERBB4, 344 nM; against ERBB2/3 it was 92 nM; in the assay with phospho-ERK1/2 [2], 6.54 µM; with HTR2A EGR1p it was 160 nM; in the assay on ERBB4 EGR1p it was 113 nM.
